Experimental data reported in patent US3950360A, “Antibiotic substances” (priority 1972, dated 1976).
Like-named read-outs stand apart in the source and are kept apart here.

What was measured:
two-spotted spider mites = assay: Test Example 1: acaricidal activity, dipping of kidneybean leaves infested with two-spotted spider mites; format: in vivo; conditions: for activity at 0.04 ppm: 0.04 p.p.m.; for activity at 0.08 ppm: 0.08 p.p.m.; for activity at 0.16 ppm: 0.16 p.p.m.; for activity at 0.31 ppm: 0.31 p.p.m.; for activity at 0.63 ppm: 0.63 p.p.m.; for activity at 1.25 ppm: 1.25 p.p.m.; for activity at 2.5 ppm: 2.5 p.p.m.; for activity at 5 ppm / activity at 10 ppm / activity at 20 ppm: read-out: acaricidal activity (%)
European red mites = assay: Test Example 2: spraying of apple leaves infested with European red mites; format: in vivo; conditions: 5 days after spraying, non-treated 88/102
Method: An emulsifiable concentrate containing 20% of a of a crude B-41, which had been obtained by purifying two times according to alumina column chromatography the brown oily substance prepared in Example 1, was diluted to a given concentration to prepare a chemical solution. This chemical solution was sprayed to apple leaves infested with about 100 European red mites and, 5 days thereafter, the number of living mites was counted.

citrus red mites = assay: Test Example 3: acaricidal activity, spraying of orange leaves infested with citrus red mites; format: in vivo; conditions: after 24 hours
Method: This chemical solution was sprayed to orange leaves infested with citrus red mites, and the acaricidal activity (%) after 24 hours was calculated.

[1] = Alcohol solution, neutralization titration method (pKa); format: physicochemical
Text: |Alcohol solution, |neutralization pH ranging |titration method

rice stem borer = assay: Test Example 5: mortality of rice stem borer larvae in rice plants; format: in vivo, rice stem borer of 1st generation; conditions: 120 h, read-out: mortality (%) of the larvae
Method: Eggs of rice stem borer of 1st generation were inoculated to rice plants (variety "Kinmaze"), which had been planted in 200 cm^2 pots, and were hatched to allow the larvae invade the stems. Subsequently, a wettable powder containing 40% of a crude B-41, which had been obtained by purifying two times according to alumina column chromatography the brown oily substance prepared in Example 1, was diluted to a given concentration and then sprayed to the plants in a proportion of 100 cc. per pot. 5 Days thereafter, the stems were split to examine the alive and dead of the larvae, and the mortality (%) of the larvae was calculated.

Solubility in solvents = format: physicochemical; conditions: "do." = same as A1

Structure (SMILES)	activity at 0.04 ppm (two-spotted spider mites; after 24 hours) [%]	activity at 0.08 ppm (two-spotted spider mites; after 24 hours) [%]	activity at 0.16 ppm (two-spotted spider mites; after 24 hours) [%]	activity at 0.31 ppm (two-spotted spider mites; after 24 hours) [%]	activity at 0.63 ppm (two-spotted spider mites; after 24 hours) [%]	activity at 1.25 ppm (two-spotted spider mites; after 24 hours) [%]	activity at 2.5 ppm (two-spotted spider mites; after 24 hours) [%]	activity at 5 ppm (two-spotted spider mites; 5 p.p.m., after 24 hours) [%]	activity at 10 ppm (two-spotted spider mites; 10 p.p.m., after 24 hours) [%]	activity at 20 ppm (two-spotted spider mites; 20 p.p.m., after 24 hours) [%]	pKa (No pKa at pH ranging from 2 to 12) [1]	also measured
CCC1OC2(CCC1C)CC1CC(CC=C(C)CC(C)C=CC=C3COC4C(O)C(C)=CC(C(=O)O1)C34O)O2 (stereo not drawn) [A4]	21.3	100	100	100	100	100	100	100	100	100		
OC(c1ccc(Cl)cc1)(c1ccc(Cl)cc1)C(Cl)(Cl)Cl [Kelthane, 1,1-Bis-(p-chlorophenyl)-2,2,2-trichloroethanol]												number of mites living at counting / before spraying (given as fraction) (European red mites; 50 p.m.m. [sic]): 56/128; number of mites living at counting / before spraying (given as fraction) (European red mites; 100 p.p.m.): 8/103; number of mites living at counting / before spraying (given as fraction) (European red mites; 200 p.p.m.): 0/97; activity at 7 ppm (citrus red mites; 7 p.p.m.): 30.8%; activity at 20 ppm (citrus red mites; 20 p.p.m.): 90.9%; activity at 5 ppm (two-spotted spider mites; 24 h): 0%; activity at 10 ppm (two-spotted spider mites; 24 h): 56.4%; activity at 20 ppm (two-spotted spider mites; 24 h): 100%
CCC1OC2(CCC1C)CC1CC(CC=C(C)CC(C)C=CC=C3COC4C(O)C(COC(=O)c5ccc[nH]5)=CC(C(=O)O1)C34O)O2 (stereo not drawn) [C2]	97.3	100	100	100	100	100	100	100	100	100	do.	
COP(=O)(OC)OC=C(Cl)Cl [Reference **]												mortality at 50 ppm (rice stem borer): 25.5%; mortality at 100 ppm (rice stem borer): 82.1%
COC1CC2(O)C(CO)=CC=CC(C)CC(C)=CCC3CC(CC4(CCC(C)C(C)O4)O3)OC(=O)C2C=C1C (stereo not drawn) [A1]						0	19.9	100	100	100	No pKa	Solubility in organic solvents ("easily soluble in n-hexane, benzene, acetone, ethanol and chloroform") (Solubility in solvents; n-hexane, benzene, acetone, ethanol and chloroform): easily; Solubility in water ("Difficultly soluble in water") (Solubility in solvents; water): Difficultly
CC1=CCC2CC(CC3(CCC(C)C(C)O3)O2)OC(=O)C2C=C(C)C(O)C3OCC(=CC=CC(C)C1)C23O (stereo not drawn) [A3]	15.2	100	98.2	100	100	100	100	100	100	100	do.	
CCC1OC2(CCC1C)CC1CC(CC=C(C)CC(C)C=CC=C3COC4C(OC)C(C)=CC(C(=O)O1)C34O)O2 (stereo not drawn) [B3]	0	18.3	74.1	100	100	100	100	100	100	100		
COC1C(C)=CC2C(=O)OC3CC(CC=C(C)CC(C)C=CC=C4COC1C42O)OC1(CCC(C)C(C)O1)C3 (stereo not drawn) [B2]		0	16.6	80.5	100	100	100	100	100	100		pH at which crystallization took place in the titration ([1]; alcohol solution, neutralization titration): ~8.7
CC1=CCC2CC(CC3(CCC(C)C(C)O3)O2)OC(=O)C2C=C(COC(=O)c3ccc[nH]3)C(O)C3OCC(=CC=CC(C)C1)C23O (stereo not drawn) [C1]	51.8	100	100	100	100	100	100	100	100	100	No pKa	
